Results on 15 molecules are retold here after patent publication US20160368919A1, “NOVEL PYRIDINE PYRAZINONES AS BET-FAMILY BROMODOMAIN INHIBITORS” (Pfizer Inc., priority 2015, published 2016).

pIC50: −log10 of the molar value.

The target in experiment [1] is T1, BRD4 BD1 (Homo sapiens, UniProt O60885).
T1 construct: His-tagged BRD4 BD1 (44-160); made in house
Nature of the experiment: BRD4 BD1 Fluorescence Polarization (FP) competition binding assay. Conditions: BRD4 BD1 40 nM, probe PFI-411FP 2 nM. Here is the method: Compound binding to BRD4 BD1 was assessed with a FP competition binding assay. […] All assay components were diluted in 50 mM HEPES pH 7.4 containing 0.08% bovine serum albumin (assay buffer). To start the assay, 8 μL of BRD4 BD1 was added to each well of a low volume 384-well black flat bottom microtiter plate (Corning 3820) containing 4 μl of various concentrations of test compound (each plate also contained positive and negative control wells to define the upper and lower limits of the assay signal). After addition of BRD4 BD1, the assay plate was incubated at room temperature (RT, 20° C.). After 15 minutes, 4 μL of PFI-411FP was added to each well and the assay plate was placed in the dark at RT. The final assay concentration (FAC) of PFI-411FP was 2 nM, the FAC of BRD4 BD1 was 40 nM, the FAC of test compound ranged from 120 to 0.0012 μM and the FAC of DMSO was 0.4%. After 60 min, polarization values were measured with an Envision 2103 multilabel reader (Perkin Elmer) using a Cy5 dual enhanced mirror and excitation at 620 nm and emission at 688 nm. The percent (%) effect was calculated for each concentration of test compound and was relative to the amount of polarization signal produced by the positive and negative control wells contained within each assay plate. The concentrations and % effect values for test compounds were plotted versus each other with a proprietary curve fitting program using a four-parameter logistic dose response equation and the concentration of compound required for 50% effect (IC50) was determined. The Ki values of competitive inhibitors were calculated using the equation described by Nikolovska-Coleska et al. (Development and optimization of a binding assay for the XIAP BIR3 domain using fluorescence polarization. Analytical Biochemistry (2004) 332: 261-273).
For orientation: Polarisation of emitted light reports the rotation of a fluorescent probe.

In experiment [2] the test system is LPS-induced IL-6 production in human whole blood. As to the kind of experiment: IL-6 human whole blood (HWB) assay, LPS-stimulated, HTRF detection. The class given is cell-based. The following applies: 1 ng/ml LPS, 4 hours. Here is the method:
Compound effect on IL-6 production was determined using lipopolysaccharide (LPS)-stimulated human whole blood and an HTRF (Homogeneous Time-Resolved Fluorescence) IL-6 detection kit (Human IL6 HTRF Assay CisBio 62IL6PEC). HWB was collected by venous puncture from healthy donors, transferred to a 50 ml polypropylene tube containing sodium heparin (14.3 units per mL of HWB) and then placed in a 37° C. water bath until use. To start the assay, 80 μL of heparin-treated HWB containing 1 ng/ml of LPS (equivalent to LPS ˜EC80 with regard to stimulation of IL-6 production in HWB under these assay conditions) was added to each well of a 384-well, sterile, endotoxin-free, polypropylene plate (Greiner 781281) containing 160 nL of various concentrations of test compound (each plate also contained positive and negative control wells to define the upper and lower limits of the assay signal). The plate was then placed in a thermoshaker incubator set to 370C (Boekel 270440). The final assay concentration (FAC) of test compound ranged from 60 to 0.0006 μM and the FAC of DMSO was 0.2%. After 4 hours, the assay plate was removed from the incubator and centrifuged at 700×g for 10 minutes. 5 μL of the resulting upper plasma layer was removed from each well and diluted 1:2 with 1×Dulbecco's phosphate buffered saline (DPBS). 5 μL of this diluted plasma was then transferred to a white 384-well low volume assay plate (Greiner 784080) containing 5 μL of combined anti-IL-6-Cryptate and anti-IL-6-XL665 detection antibodies (per manufacturer's protocol). The plate was then sealed with a Top Seal (Perkin Elmer 6005185) and incubated at room temperature (RT, 20° C.). After 16-18 hrs (overnight), the HTRF assay signal was read on an Envision 2103 plate reader using a Lance Delfia Dual/Bias mirror TRF laser excitation and emission was measured at 665 nm and 615 nm respectively. The percent (%) effect was calculated for each concentration of test compound and was relative to the amount of HTRF signal produced by the positive and negative control wells contained within each assay plate. The concentrations and % effect values for test compounds were plotted versus each other with a proprietary curve fitting program using a four-parameter logistic dose response equation and the concentration of compound required for 50% effect (IC50) was determined.
(Time-resolved FRET reads energy transfer from a long-lived donor to a nearby acceptor.)

Experiment [3] deals with MM1.S cells. Nature of the experiment: MM1.S cell proliferation assay (CellTiter-Glo). The class given is cell-based. Conditions: MM1.S, CTG at 96h. Here is the method: (§1) MM1.S (dexamethasone sensitive) and OPM-2 cells were purchased from ATCC and maintained in RPMI-1640 medium with 10% fetal bovine serum at 37 degrees, 5% CO2. Cells were seeded at 10,000 cells/well in 100 uL medium. The following day compounds or control vehicle (DMSO) were added at indicated concentrations in 10 ul volume. Compound treated OPM-2 cells and MM1.S cell were analyzed for cell density at 72h and 96h, respectively, using CellTiter-Glo® (CTG) reagent (Promega). The CTG assay measures the amount of ATP present, which indicates the number of viable cells in culture.

Experiment [4] concerns OPM-2 cells. Nature of the experiment: OPM-2 cell proliferation assay (CellTiter-Glo). Conditions: OPM-2, CTG at 72h. The class given is cell-based. Here is the method: as §1

For orientation: pIC50 means the negative decadic logarithm of the IC50, by convention in mol/L. On to `Cc1noc(C)c1-c1ccc2nc(NCCC(=O)O)c(=O)n([C@@H](C)c3ccccc3)c2n1` [Example 42, N-{6-(3,5-dimethyl-1,2-oxazol-4-yl)-3-oxo-4-[(1S)-1-phenylethyl]-3,4-dihydropyrido[2,3-b]pyrazin-2-yl}-beta-alanine], for which the pIC50 in experiment [1] was 6.84; in experiment [2] it was 5.21.

Take `COc1ccccc1[C@H](C)n1c(=O)c(NCCC(=O)O)nc2ccc(-c3c(C)noc3C)nc21` [Example 43, N-{6-(3,5-dimethyl-1,2-oxazol-4-yl)-4-[(1S)-1-(2-methoxyphenyl)ethyl]-3-oxo-3,4-dihydropyrido[2,3-b]pyrazin-2-yl}-beta-alanine]: the pIC50 in experiment [1] is 6.24; in experiment [2], 5.08.

Regarding `CC[C@@H](c1ccccc1)n1c(=O)c(NCCC(=O)O)nc2ccc(-c3c(C)noc3C)nc21` [Example 44, N-{6-(3,5-dimethyl-1,2-oxazol-4-yl)-3-oxo-4-[(1S)-1-phenylpropyl]-3,4-dihydropyrido[2,3-b]pyrazin-2-yl}-beta-alanine], the pIC50 was 7.05 in experiment [1] and 5.59 in experiment [2].

For `CC[C@@H](c1ncccn1)n1c(=O)c(NCCC(=O)O)nc2ccc(-c3c(C)noc3C)nc21` [Example 45, N-{6-(3,5-dimethyl-1,2-oxazol-4-yl)-3-oxo-4-[(1S)-1-(pyrimidin-2-yl)propyl]-3,4-dihydropyrido[2,3-b]pyrazin-2-yl}-beta-alanine], the pIC50 was 6.49 in experiment [1] and 5.07 in experiment [2].

Take `CC[C@@H](COC)n1c(=O)c(NCCC(=O)O)nc2ccc(-c3c(C)noc3C)nc21` [Example 46, N-{6-(3,5-dimethyl-1,2-oxazol-4-yl)-4-[(2S)-1-methoxybutan-2-yl]-3-oxo-3,4-dihydropyrido[2,3-b]pyrazin-2-yl}-beta-alanine]: the pIC50 in experiment [1] was 6.45; in experiment [2], 5.21.

`COCC(COC)n1c(=O)c(NCCC(=O)O)nc2ccc(-c3c(C)noc3C)nc21` [Example 48, N-[4-(1,3-dimethoxypropan-2-yl)-6-(3,5-dimethyl-1,2-oxazol-4-yl)-3-oxo-3,4-dihydropyrido[2,3-b]pyrazin-2-yl]-beta-alanine]: the pIC50 in experiment [1] was 6.33; in experiment [2] it was 4.82.

`Cc1noc(C)c1-c1ccc2nc(NCCC(=O)NS(C)(=O)=O)c(=O)n([C@@H](C)c3ccccc3)c2n1` [Example 50, N^3-{6-(3,5-dimethyl-1,2-oxazol-4-yl)-3-oxo-4-[(1S)-1-phenylethyl]-3,4-dihydropyrido[2,3-b]pyrazin-2-yl}-N-(methylsulfonyl)-beta-alaninamide]: the pIC50 was 6.63 in experiment [1] and 4.49 in experiment [2].

With `Cc1noc(C)c1-c1ccc2nc(NCCc3nnn[nH]3)c(=O)n([C@@H](C)c3ccccc3)c2n1` [Example 51, 6-(3,5-dimethyl-1,2-oxazol-4-yl)-4-[(1S)-1-phenylethyl]-2-{[2-(1H-tetrazol-5-yl)ethyl]amino}pyrido[2,3-b]pyrazin-3(4H)-one], the pIC50 in experiment [1] is 6.53; in experiment [2], 4.20.

Take `CCC[C@@H](c1ccccc1)n1c(=O)c(NCCC(=O)O)nc2ccc(-c3c(C)noc3C)nc21` [Example 52, N-{6-(3,5-dimethyl-1,2-oxazol-4-yl)-3-oxo-4-[(1S)-1-phenylbutyl]-3,4-dihydropyrido[2,3-b]pyrazin-2-yl}-beta-alanine]: the pIC50 in experiment [1] was 7.20; in experiment [2] it was 5.96.

In the case of `Cc1noc(C)c1-c1ccc2nc(NCCC(=O)O)c(=O)n([C@H](c3ccccc3)C(C)C)c2n1` [Example 53, N-{6-(3,5-dimethyl-1,2-oxazol-4-yl)-4-[(1S)-2-methyl-1-phenylpropyl]-3-oxo-3,4-dihydropyrido[2,3-b]pyrazin-2-yl}-beta-alanine], the pIC50 was 6.90 in experiment [1] and 5.03 in experiment [2].

On to `Cc1noc(C)c1-c1ccc2nc(NCCC(=O)O)c(=O)n([C@H](c3ccccn3)C(C)C)c2n1` [Example 54, N-{6-(3,5-dimethyl-1,2-oxazol-4-yl)-4-[(1S)-2-methyl-1-(pyridin-2-yl)propyl]-3-oxo-3,4-dihydropyrido[2,3-b]pyrazin-2-yl}-beta-alanine], for which the figures for the negative-log IC50 (pIC50) in experiment [1] and in experiment [2] were 7.00 and 5.58, respectively.

With `Cc1noc(C)c1-c1ccc2nc(NCCC(=O)O)c(=O)n([C@@H](C)C3CCCCC3)c2n1` [Example 55, N-{4-[(1S)-1-cyclohexylethyl]-6-(3,5-dimethyl-1,2-oxazol-4-yl)-3-oxo-3,4-dihydropyrido[2,3-b]pyrazin-2-yl}-beta-alanine], the results for the pIC50 in experiment [1] and in experiment [2] were 6.88 and 4.94, respectively.

Regarding `CCC(CC)n1c(=O)c(NCCC(=O)O)nc2ccc(-c3c(C)noc3C)nc21` [Example 56, N-[6-(3,5-dimethyl-1,2-oxazol-4-yl)-3-oxo-4-(pentan-3-yl)-3,4-dihydropyrido[2,3-b]pyrazin-2-yl]-beta-alanine], the figures for the pIC50 in experiment [1] and in experiment [2] were 6.46 and 4.92, respectively.

Turning to `CNC(=O)CNc1nc2ccc(-c3c(C)noc3C)nc2n([C@@H](C)c2ccccc2OC)c1=O` [Example 57, N^2-{6-(3,5-dimethyl-1,2-oxazol-4-yl)-4-[(1S)-1-(2-methoxyphenyl)ethyl]-3-oxo-3,4-dihydropyrido[2,3-b]pyrazin-2-yl}-N-methylglycinamide], the results for the pIC50 in experiment [1] and in experiment [2] were 6.80 and 6.04, respectively.

Take `Cc1sc2c(c1C)C(c1ccc(Cl)cc1)=N[C@@H](CC(=O)OC(C)(C)C)c1nnc(C)n1-2` [JQ1(−)]: the pIC50 in experiment [3] and in experiment [4] was less than 6.00 in each case.
